In patent publication US9801943B2, “Method for in vivo targeting of nanoparticles via bioorthogonal copper-free click chemistry” (KOREA INSTITUTE OF SCIENCE AND TECHNOLOGY, priority 2012, dated 2017):

What was measured:
A549 cells = assay: Generation of azide groups on A549 cells (Coomassie staining, western blot with phosphine-FLAG); type: cell-based, human; details: Ac4ManNAz 0.5, 5, 50 μM, 3 days
Method: A549 cells in 10 mL of media with no sugar or different concentrations of Ac4ManNAz (final concentrations of 0.5 μM, 5 μM and 50 μM) were seeded onto 100×20 mm polystyrene tissue culture plates at a density of 1.5×10^6 cells per plate and incubated for 3 days. The cells were washed twice with PBS (pH 7.4) and harvested from the plates with a cell scraper. The cells were pelletized by centrifuging at 3,000×g for 5 minutes and the supernatant was discarded. The cell pellets were resuspended in 500 μL of lysis buffer (1% SDS, 100 mM Tris.HCl, pH 7.4) containing protease inhibitor (Complete, EDTA-free) and lysed at 4° C. using a probe-type sonicator. The sonicated lysates were incubated at 4° C. for 30 minutes to further solubilize proteins. Insoluble debris was removed by centrifuging at 3,000×g for 10 minutes. Total soluble protein concentration was determined by the bicinchroninic acid (BCA) protein assay (Pierce, Ill., USA) to be 5 mg/mL. 20 μL of the lysate (5 mg/mL protein) was incubated with 2 μL of phosphine-FLAG (5 mM in PBS, pH 7.4) (Sigma, St. Louis, Mo., USA) at 37° C. for 6 hours. SDS-PAGE loading buffer was added to each sample. Then, aliquots were loaded onto 10% SDS-PAGE after heating at 95° C. […]

A549 tumors [1] = assay: Generation of azide groups in tumor tissues (western blot, immunohistochemical staining); type: in vivo, mice; details: Ac4ManNAz 0.5, 5, 50 mM intratumoral once daily for 3 days; tumors dissected on day 4
Method: Preparation of tumor-bearing mouse models and administration of Ac4ManNAz were performed according to the same method as described above. 24 hours after the injection of Ac4ManNAz (on day 4), the tumors were dissected, transferred into 1 mL of lysis buffer (1% SDS, 100 mM Tris.HCl, pH 7.4) containing protease inhibitor (Complete, EDTA-free), and homogenized using a homogenizer (WiseMix HG-15D, Daihan Scientific, Seoul, Korea). The lysate was incubated at 4° C. for 30 minutes and insoluble debris was removed by centrifuging at 3,000×g for 10 minutes. Protein concentration was measured using the BCA protein assay kit. Staudinger reaction with phosphine-FLAG, SDS-PAGE and western blot analysis were conducted as described above.
The dissected tumor tissues were retrieved and fixed in a 4% (v/v) buffered formalin solution, dehydrated with graded ethanol series, and embedded in paraffin. The paraffin tissues were sliced into 4-μm wide slices and immunohistochemical staining was performed using Histostain®-Plus Brod Spectrum (Invitrogen, CA, USA) in combination with phosphine-FLAG and monoclonal anti-FLAG-HRP antibodies according to the manufacturer's instructions. The paraffin slices were dehydrated, mounted using the Permount SP15-100 Toluene Solution (Fisher Scientific, NJ, USA) mounting medium, and observed with an optical microscope (BX51, Olympus, Tokyo, Japan). […]

A549 tumors [2] = assay: In vivo and ex vivo NIRF imaging of tumor targeting in A549 tumor-bearing mice; details: i.v., same fluorescence intensity as DBCO-lipo
Method: All experiments using live animals were performed in compliance with the relevant laws and the institutional guidelines of the Korea Institute of Science and Technology (KIST) and under the approval by the institutional committee. For in vivo and ex vivo experiments, 1.0×10^7 A549 tumor cells were administered to 5-week-old male athymic nude mice (20 g, Institute of Medical Science, Tokyo, Japan) on both flanks by subcutaneous injection. […] DBCO-lipo (10 mg/kg), DBCO-free control liposome (10 mg/kg) or DBCO-fluorescent dye conjugate of the same fluorescence intensity as DBCO-lipo were injected into the tail veins of two A549 tumor-bearing mice. […] Near-infrared (NIR) fluorescence emission at 700 nm was collected and detected with a fast photomultiplier tube (Hamamatsu, Japan) and a time-correlated single photon counting system (Becker and Hickl GmbH, Berlin, Germany). The active tumor targeting characteristics of DBCO-lipo were evaluated by capturing 20 z-section images at 1.0 mm spacing using the Analysis Workstation software (ART Advanced Research Technologies Inc., Montreal, Canada). […] NIR fluorescence images were obtained using a 12-bit CCD (Kodak Image Station 4000 MM, New Haven, Conn., USA) equipped with a Cy5.5 emission filter (600-700 nm; Omega Optical). […] All numerical values were expressed as mean±standard deviation for the three animal groups. […]

In the case of `CC(=O)OC[C@H]1OC(OC(C)=O)[C@@H](NC(=O)CN=[N+]=[N-])[C@@H](OC(C)=O)[C@@H]1OC(C)=O` (stereo partly drawn) [Ac4ManNAz, Tetraacetylated N-azidoacetyl-D-mannosamine], the “generation of azide groups on cell surface” value (A549 cells) is reported as “modified azide groups could be generated on the surface of the A549 cells” and the “amount of azide groups in tumor tissues” value (A549 tumors [1]) is reported as “increased in a dose-dependent manner”.
With dibenzylcyclooctyne-SETA650 [DBCO-SETA] the “NIRF image brightness in mice” value (A549 tumors [2]) was “relatively dim images”.
